Entries after “also recorded” stand apart in the source; their conditions may differ.
Key:
Conditions in all cases: 18 h
[1] = system: ABCA1; assay: ABCA1 expression by western blot in differentiated podocytes; format: cell-based, human
Procedure: Podocytes differentiated for 14 days were starved in RPMI-0.2% FBS for 18 h and then treated with freshly prepared dilutions of compounds in full media for 18 h at 37° C. and 5% CO2. Compound concentrations of 1 μM, 5 μM and 10 μM were evaluated. Cells were then washed with PBS and lysed with 1× cell lysis buffer (Cell Signaling) supplemented with protease and phosphatase inhibitor cocktails (Roche). Total protein content was determined by BCA method (Pierce, Thermoscientific). ABCA1 expression was analyzed by western blot.
(§1) Lysates, or cell fractions were incubated with buffer sample at 55° C. for 10 min under reducing conditions. A total of […] of protein in lysates, and one third of the volume collected in cell fraction preps, were separated by SDSPAGE in 4-20% gels (Biorad) and proteins were then transferred to PVDF membranes. Membranes were blocked with 5% milk and blotted with protein-specific antibodies for 18 h at 4° C. The following antibodies were used: mouse anti-ABCA1 (Abcam; 1:1,000), rabbit anti-GAPDH antibody (Millipore; 1:10,000), rabbit anti-MEK and anti-Na^+/K^+ ATPase (Cell Signaling; 1:1,000). After washing with PBS-T, membranes were incubated with anti-mouse and anti-rabbit specific antibodies conjugated to HRP (Promega) 1:10,000 in 5% milk. Membranes were washed and signal was developed using Western bright ECL substrate (Advansta).

[2] = system: ABCA1; assay: Cell fractionation, ABCA1 localization by western blot; format: cell-based, human
Procedure: 14 day-differentiated podocytes were treated with compounds Cpd C (1 μM), Cpd A (5 μM) and Cpd G (10 μM) for 18 h and then washed and scraped with ice cold PBS. Cells were centrifuged at 1,000×g for 5 min, supernatant was carefully aspirated and the pellet resuspended in hypotonic buffer (15 mM KCl, 1.5 mM MgCl2, 10 mM HEPES and 1 mM DTT) supplemented with Roche's protease inhibitor cocktail. Further cell rupture was ensured by frothing in a glass douncer and two freeze and thaw cycles. Sucrose was added, 227 mM final concentration, and the cells were centrifuged at 1,000×g for 30 min at 4° C. The supernatant was then transferred to a new tube and centrifuged at 10,000×g for 15 min at 4° C. The pellet, containing the microsomal fraction was collected and the supernatant was transferred to a new tube and centrifuged at 100,000×g for 1 hr at 4° C. The pelleted plasma membrane fraction was collected and the supernatant, containing non membranous cytosolic fraction, was concentrated in Vivaspin 500 filter columns. The presence of ABCA1, and proteins known to be present at the plasma membrane (Na^+/K^+ sodium pump) and cytosol (MEK), in each fraction was verified by western blot.
as §1

[3] = system: differentiated human podocytes; assay: Compound cytotoxicity in differentiated human podocytes (ApoTox-Glo Triplex Assay); format: cell-based
Procedure: Podocytes were seeded in 96-well plates (Greiner) and allowed to differentiate for 14 days. Cells were then washed with PBS, and incubated with media (RPMI-0.2% BSA) with or without vehicle and compounds for 18 h at 37° C., 5% CO2. Compound concentrations tested were 1 μM, 5 μM, 10 μM and 20 μM. Vehicle (DMSO) final concentration was 0.1%. All treatments were done in duplicates. Cytotoxicity was assayed using ApoTox-Glo Triplex Assay (Promega) following manufacturer's instructions. Briefly, cell-permeant (GF-AFC) and cell impermeant (bis-AAF-R110) peptide substrates were diluted and added to all wells and the cells were incubated at 37° C., 5% CO2 for 1 hr. A set of cells were treated with saponin (2 mg/ml) as a positive control of cell cytotoxicity. Cell viability and cytotoxicity fluorescence signals were measured at 400 nm/505 nm and 485 nm/520 nm Excitation/Emission, respectively using a fluorescence microplate reader (SpectraMax i3). RFU signal obtained with the cell toxicity substrate was normalized to the one obtained with the viable substrate in the same well to eliminate the effect of different cell numbers per well.

[4] = concentrations above 10 uM, FIG. 3

Row | Structure (SMILES) | ABCA1 expression (western blot, whole cell lysates) ([1]; 10 uM) | ABCA1 in the microsomal compartment ([2]; 10 μM) | ABCA1 localization at the plasma membrane ([2]; 10 μM) | Cytotoxicity ([3]; 20 μM) | Cytotoxicity [3, 4] | ABCA1 expression (western blot, whole cell lysates) ([1]; 5 uM, FIG. 4B) | ABCA1 in the microsomal compartment ([2]; 5 μM) | ABCA1 localization at the plasma membrane ([2]; 5 μM) | ABCA1 expression (western blot, whole cell lysates) ([1]; doses as low as 1 uM, FIG. 4A) | ABCA1 localization at the plasma membrane ([2]; 1 μM)
1 | O=C(N[C@@H]1CCCC[C@H]1O)c1cnc(OCC(F)(F)F)c(-c2ccc(Cl)c(Cl)c2)c1 [Cpd G, 5-(3,4-dichloro-phenyl)-N-((1R,2R)-2-hydroxy-cyclohexyl)-6-(2,2,2-trifluoro-ethoxy)-nicotinamide] | modest induction; also recorded: modest increase; also recorded: increased ABCA1 expression | Less ABCA1 | increase the expression of ABCA1 at the plasma membrane; also recorded: promoted ABCA1 localization at the plasma membrane | – | – | – | – | – | – | –
2 | O=C(N[C@@H]1CCCC[C@H]1O)c1ccc(OCC(F)(F)F)c(-c2ccc(Cl)c(Cl)c2)n1 [Cpd A, 6-(3,4-Dichlorophenyl)-N-[(1R,2R)-2-hydroxycyclohexyl]-5-(2,2,2-trifluoroethoxy)pyridine-2-carboxamide] | modest induction; also recorded: increased ABCA1 expression | – | – | significant toxicity | significant toxicity | modest increase | Less ABCA1 | increase the expression of ABCA1 at the plasma membrane; also recorded: promoted ABCA1 localization at the plasma membrane | – | –
3 | Cc1oc(-c2cccc(C(F)(F)F)c2)nc1Cn1c(C)cc2cc(C(O)(C(F)(F)F)C(F)(F)F)ccc21 [Cpd C, 1,1,1,3,3,3-Hexafluoro-2-{2-methyl-1-[5-methyl-2-(3-trifluoromethyl-phenyl)-oxazol-4-ylmethyl]-1H-indol-5-yl}-propan-2-ol, reference compound] | – | – | – | significant toxicity | significant toxicity | – | – | – | strong induction; also recorded: markedly increased | increase the expression of ABCA1 at the plasma membrane; also recorded: promoted ABCA1 localization at the plasma membrane

— patent US20210275514A1, “COMPOUNDS FOR USE IN TREATING KIDNEY DISORDERS” (Hoffmann-La Roche Inc., priority 2018, published 2021)
